Results as given in patent US11192894B2, “Cell impermeable coelenterazine analogues” (PROMEGA CORPORATION, priority 2016, dated 2021).

What was measured:
[1] = target: purified NANOLUC® Luciferase (Oplophorus gracilirostris, UniProt Q9GV45, A31E/A60N/A81I/F95D/I117V/K70R/L54V/L99Q/M102K/N193R/P142E/Q151K/Q38R/Q45L/V71I/Y165I); format: biochemical; conditions: relative value, furimazine set to 1; purified NanoLuc; initial light output three minutes after substrate addition
Protocol: Each compound to be screened was dissolved in DMSO (5 mM) and then further diluted to 100 uM in NANO-GLO® Luciferase Assay Buffer. Each diluted substrate was then combined in equal volumes with purified NANOLUC® Luciferase diluted into CO2 independent media+10% FBS. Initial light output for each substrate was measured in a GloMax®-Multi+ luminometer three minutes after substrate addition and then at five minute intervals as a means to determine signal half-life. […] Km was calculated using GraphPad Prism using non linear Michaelis-Menten regression.

NanoLuc:KDR = assay: Cell-based luciferase assay, HEK293 cells expressing NanoLuc:KDR (NanoLuc on the cell surface), ± extracellular inhibitor JRW-0344; conditions: 10 μM substrate ± 20 μM inhibitor, FIG. 2A
Protocol: (§1) FIGS. 2A-2D show extracellular bioluminescent activity of exemplary compounds in HEK293 cells. HEK293 cells were transfected with two different membrane bound NANOLUC® fusions: 1) NanoLuc:KDR, presenting NanoLuc on the outside of the membrane; 2) KDR:NanoLuc, presenting NanoLuc on the inside of the membrane. The cell impermeable NANOLUC® inhibitor JRW-0344 (disclosed in U.S. Ser. No. 15/192,420 to Duellman et al., “THIENOPYRROLE COMPOUNDS AND USES THEREOF,” filed Jun. 24, 2016), was added to the cells to inhibit extracellular bioluminescent activity.
(§2) HEK293 cells were maintained in DMEM containing 100 IU/ml penicillin, 100 μg/ml streptomycin, and 10% fetal calf serum at 37° C. in 5% CO2. Dulbecco's modified eagle medium (DMEM), Opti-MEM, Penicillin/Streptomycin, and Trypsin-EDTA are purchased from Life Technologies (Carlsbad). Fetal calf serum (FBS) is purchased from HyClone (GE Healthcare). Microtiter plates were purchased from Corning.
(§3) HEK293 cells were transiently transfected with two different integral membrane NanoLuc fusion proteins: 1) NanoLuc:KDR, presenting NanoLuc on the cell surface; 2) KDR:NanoLuc, presenting NanoLuc in the interior of the cell. After 24 hours, transfected cells were collected, resuspended in OptiM at 200,000 cell/ml and plated into wells of white, 96-well plates at 100 μL/well. For luminescent measurements, cells were treated with the indicated substrates at a final concentration of 10 μM or 20 μM in the presence or absence of 20 μM cell impermeable NanoLuc inhibitor JRW-0344. The luminescent signal was analyzed 3 minutes after substrate addition using a GLOMAX® Discover multimode detection plate reader (Promega).

KDR:NanoLuc = assay: Cell-based luciferase assay, HEK293 cells expressing KDR:NanoLuc (NanoLuc in the interior of the cell), ± extracellular inhibitor JRW-0344; conditions: HEK293 expressing KDR:Nluc; 10 μM substrate ± 20 μM JRW-0344; FIG. 2C
Protocol: as §1, §2, §3

purified NANOLUC® Luciferase, sequence (Q9GV45 28-196 with tags or gaps with the stated changes limits assumed): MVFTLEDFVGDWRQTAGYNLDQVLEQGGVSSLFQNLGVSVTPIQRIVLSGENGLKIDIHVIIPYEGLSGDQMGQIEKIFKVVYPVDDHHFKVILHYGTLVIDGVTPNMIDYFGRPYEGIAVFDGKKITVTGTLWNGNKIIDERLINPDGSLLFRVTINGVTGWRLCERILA

Row | Compound | RLU at 100 uM [1] | Difference in RLU's in the presence and absence of the extracellular inhibitor (NanoLuc:KDR) | RLU and effect of the extracellular inhibitor (KDR:NanoLuc)
1 | O=c1c(Cc2ccc(OCCCCCCS(=O)(=O)OCC(Cl)(Cl)Cl)c(Cl)c2)nc2c(Cc3ccccc3)[nH]c(-c3ccccc3)cn1-2 [JRW-0665, 2,2,2-trichloroethyl 6-(4-((8-benzyl-3-oxo-6-phenyl-3,7-dihydroimidazo[1,2-a]pyrazin-2-yl)methyl)-2-chlorophenoxy)hexane-1-sulfonate] | 0.0055 | – | –
2 | CC(C)(C)OC(=O)CCCCCOc1cccc(Cc2nc3c(Cc4ccccc4)[nH]c(-c4ccccc4)cn-3c2=O)c1 [JRW-0682, tert-butyl 6-(3-((8-benzyl-3-oxo-6-phenyl-3,7-dihydroimidazo[1,2-a]pyrazin-2-yl)methyl)phenoxy)hexanoate] | 0.0024 | – | –
3 | O=C(O)CCCCCOc1cccc(Cc2nc3c(Cc4ccccc4)[nH]c(-c4ccccc4)cn-3c2=O)c1 [JRW-0684, 6-(3-((8-benzyl-3-oxo-6-phenyl-3,7-dihydroimidazo[1,2-a]pyrazin-2-yl)methyl)phenoxy)hexanoic acid] | 0.0057 | Small differences in RLU's | not affected by the extracellular inhibitor
4 | O=c1c(Cc2cccc(OCCCCCCBr)c2)nc2c(Cc3ccccc3)[nH]c(-c3ccccc3)cn1-2 [JRW-0692, 8-benzyl-2-(3-((6-bromohexyl)oxy)benzyl)-6-phenylimidazo[1,2-a]pyrazin-3(7H)-one] | 0.0025 | – | –
5 | O=c1c(Cc2cccc(OCCCS(=O)(=O)[O-])c2)nc2c(Cc3ccccc3)[nH]c(-c3ccccc3)cn1-2.[Na+] [JRW-0713, sodium 3-(3-((8-benzyl-3-oxo-6-phenyl-3,7-dihydroimidazo[1,2-a]pyrazin-2-yl)methyl)phenoxy)propane-1-sulfonate] | 0.00081 | – | –
6 | CC(C)(C)OC(=O)CCCOc1cccc(Cc2nc3c(Cc4ccccc4)[nH]c(-c4ccccc4)cn-3c2=O)c1 [JRW-0714, tert-butyl 4-(3-((8-benzyl-3-oxo-6-phenyl-3,7-dihydroimidazo[1,2-a]pyrazin-2-yl)methyl)phenoxy)butanoate] | 0.0013 | – | –
7 | O=C(O)CCCOc1cccc(Cc2nc3c(Cc4ccccc4)[nH]c(-c4ccccc4)cn-3c2=O)c1 [JRW-0716, 4-(3-((8-benzyl-3-oxo-6-phenyl-3,7-dihydroimidazo[1,2-a]pyrazin-2-yl)methyl)phenoxy)butanoic acid] | 0.0022 | – | –
8 | CC(C)(C)OC(=O)CCCCCCCOc1cccc(Cc2nc3c(Cc4ccccc4)[nH]c(-c4ccccc4)cn-3c2=O)c1 [JRW-0719, tert-butyl 8-(3-((8-benzyl-3-oxo-6-phenyl-3,7-dihydroimidazo[1,2-a]pyrazin-2-yl)methyl)phenoxy)octanoate] | 0.0011 | – | –
9 | O=c1c(Cc2ccc(OCCCCCCBr)c(Cl)c2)nc2c(Cc3ccccc3)[nH]c(-c3ccccc3)cn1-2 [JRW-0720, 8-benzyl-2-(4-((6-bromohexyl)oxy)-3-chlorobenzyl)-6-phenylimidazo[1,2-a]pyrazin-3(7H)-one] | 0.0085 | Small differences in RLU's | not affected by the extracellular inhibitor
10 | O=C(O)CCCCCCCOc1cccc(Cc2nc3c(Cc4ccccc4)[nH]c(-c4ccccc4)cn-3c2=O)c1 [JRW-0722, 8-(3-((8-benzyl-3-oxo-6-phenyl-3,7-dihydroimidazo[1,2-a]pyrazin-2-yl)methyl)phenoxy)octanoic acid] | 0.023 | – | –
11 | CC(C)(C)OC(=O)CCCCCOc1ccc(Cc2nc3c(Cc4ccccc4)[nH]c(-c4ccccc4)cn-3c2=O)cc1Cl [JRW-0725, tert-butyl 6-(4-((8-benzyl-3-oxo-6-phenyl-3,7-dihydroimidazo[1,2-a]pyrazin-2-yl)methyl)-2-chlorophenoxy)hexanoate] | 0.013 | – | –
12 | CC(=O)N[C@@H](CC(=O)O)C(=O)N[C@@H](CC(=O)O)C(=O)N[C@@H](CC(=O)O)C(=O)NCCCCCCOc1cccc(Cc2nc3c(Cc4ccccc4)[nH]c(-c4ccccc4)cn-3c2=O)c1 [JRW-0741, (S)-3-acetamido-4-(((S)-1-(((S)-1-((6-(3-((8-benzyl-3-oxo-6-phenyl-3,7-dihydroimidazo[1,2-a]pyrazin-2-yl)methyl)phenoxy)hexyl)amino)-3-carboxy-1-oxopropan-2-yl)amino)-3-carboxy-1-oxopropan-2-yl)amino)-4-oxobutanoic acid] | 0.0057 | – | –
13 | CC(C)(C)OC(=O)c1cccc(-c2cn3c(=O)c(Cc4ccco4)nc-3c(Cc3ccccc3)[nH]2)c1 [JRW-0755, tert-butyl 3-(8-benzyl-2-(furan-2-ylmethyl)-3-oxo-3,7-dihydroimidazo[1,2-a]pyrazin-6-yl)benzoate] | 0.000043 | – | –
14 | O=c1c(Cc2ccc(OCCCCCCCCS(=O)(=O)[O-])c(Cl)c2)nc2c(Cc3ccccc3)[nH]c(-c3ccccc3)cn1-2.[Na+] [JRW-0761, sodium 8-(4-((8-benzyl-3-oxo-6-phenyl-3,7-dihydroimidazo[1,2-a]pyrazin-2-yl)methyl)-2-chlorophenoxy)octane-1-sulfonate] | 0.075 | – | –
15 | O=c1c(Cc2ccc(OCCCCCCCCCCS(=O)(=O)[O-])c(Cl)c2)nc2c(Cc3ccccc3)[nH]c(-c3ccccc3)cn1-2.[Na+] [JRW-0765, sodium 10-(4-((8-benzyl-3-oxo-6-phenyl-3,7-dihydroimidazo[1,2-a]pyrazin-2-yl)methyl)-2-chlorophenoxy)decane-1-sulfonate] | 0.011 | – | –
16 | O=c1c(Cc2ccc(Cl)c(OCCCCCCS(=O)(=O)[O-])c2)nc2c(Cc3ccccc3)[nH]c(-c3ccccc3)cn1-2.[Na+] [JRW-0766, sodium 6-(5-((8-benzyl-3-oxo-6-phenyl-3,7-dihydroimidazo[1,2-a]pyrazin-2-yl)methyl)-2-chlorophenoxy)hexane-1-sulfonate] | 0.015 | – | –
17 | O=c1c(Cc2cc(F)c(OCCCCCCS(=O)(=O)[O-])c(F)c2)nc2c(Cc3ccccc3)[nH]c(-c3ccccc3)cn1-2.[Na+] [JRW-0771, sodium 6-(4-((8-benzyl-3-oxo-6-phenyl-3,7-dihydroimidazo[1,2-a]pyrazin-2-yl)methyl)-2,6-difluorophenoxy)hexane-1-sulfonate] | 0.15 | – | –
18 | O=C(O)c1ccc(-c2cn3c(=O)c(Cc4ccco4)nc-3c(Cc3ccccc3)[nH]2)cc1 [JRW-0790, 4-(8-benzyl-2-(furan-2-ylmethyl)-3-oxo-3,7-dihydroimidazo[1,2-a]pyrazin-6-yl)benzoic acid] | 0.0029 | – | –
19 | NCCCCCCOc1ccc(Cc2nc3c(Cc4ccccc4)[nH]c(-c4ccccc4)cn-3c2=O)cc1F [JRW-0801, 2-(4-((6-aminohexyl)oxy)-3-fluorobenzyl)-8-benzyl-6-phenylimidazo[1,2-a]pyrazin-3(7H)-one] | 0.0073 | – | –
20 | O=c1c(Cc2ccc(OCCCCCCS(=O)(=O)O)c(Cl)c2)nc2c(Cc3ccccc3)[nH]c(-c3cccc(O)c3)cn1-2 [JRW-0805, 6-(4-((8-benzyl-6-(3-hydroxyphenyl)-3-oxo-3,7-dihydroimidazo[1,2-a]pyrazin-2-yl)methyl)-2-chlorophenoxy)hexane-1-sulfonic acid] | 0.17 | – | –
21 | CC(=O)N[C@@H](CC(=O)O)C(=O)N[C@@H](CC(=O)O)C(=O)N[C@@H](CC(=O)O)C(=O)NCCCCCCOc1ccc(Cc2nc3c(Cc4ccccc4)[nH]c(-c4ccccc4)cn-3c2=O)cc1F [JRW-0806, (S)-3-acetamido-4-(((S)-1-(((S)-1-((6-(4-((8-benzyl-3-oxo-6-phenyl-3,7-dihydroimidazo[1,2-a]pyrazin-2-yl)methyl)-2-fluorophenoxy)hexyl)amino)-3-carboxy-1-oxopropan-2-yl)amino)-3-carboxy-1-oxopropan-2-yl)amino)-4-oxobutanoic acid] | 0.021 | – | –
22 | NCCCCCCOc1cccc(Cc2nc3c(Cc4ccccc4)[nH]c(-c4ccccc4)cn-3c2=O)c1 [TAK-0039, 2-(3-((6-aminohexyl)oxy)benzyl)-8-benzyl-6-phenylimidazo[1,2-a]pyrazin-3(7H)-one] | 0.0077 | Small differences in RLU's | not affected by the extracellular inhibitor
